This passage reports melting point results from a melting point compilation (Tetko et al.).

Residues, ends and D or L forms follow the SMILES beside them. *: point of attachment. Trt = c1ccc(C(c2ccccc2)(c2ccccc2)*)cc1; Cbz = O=C(OCc1ccccc1)*; Boc = CC(C)(C)OC(=O)*

In general, melting point refers to the temperature of the solid-liquid transition.

In turn, `CC(C)(Cc1ccc(S(=O)(=O)CCc2c(CCNS(=O)(=O)Cc3ccc(Cl)c(Cl)c3)n(C(c3ccccc3)c3ccccc3)c3ccc(Cl)cc23)cc1)C(=O)O` displayed a melting point of 207 to 208 °C.

As for `CCc1nc2c(N)nc3cc(OCCCc4cccnc4)ccc3c2s1`, the melting point is 172 to 173 °C.

In turn, `CCCCCCCCCCCCCCOc1ccc(N(CC(=O)OCc2ccccc2)CC(=O)OCc2ccccc2)cc1OCCCCCCCCCCCCCC` registered a melting point of 52 °C.

For `CCCCCCCCNc1nc(NCCCCC2CC(C)(C)N(OCC(C)(C)O)C(C)(C)C2)nc(NCCCCC2CC(C)(C)N(OCC(C)(C)O)C(C)(C)C2)n1`, the melting point lay in the range of 68 to 86 °C.

The compound `O=C(O)Cc1cccc(-c2cc(CCCC(=O)N3CCC(CCCC4CCN(C(=O)CCCc5ccc(OC6OC(CO)C(O)C(O)C6O)c(-c6cccc(CC(=O)O)c6)c5)CC4)CC3)ccc2OC2OC(CO)C(O)C(O)C2O)c1` (stereo not drawn) showed a melting point of 119 to 121 °C.

`COC(=O)COc1ccccc1`: the melting point is 85 to 89 °C.

For `CC1(C)CC(Nc2nc(N(C3CC(C)(C)NC(C)(C)C3)C3CC(C)(C)NC(C)(C)C3)nc(N(C3CC(C)(C)NC(C)(C)C3)C3CC(C)(C)NC(C)(C)C3)n2)CC(C)(C)N1`, the melting point was in the range of 318 to 320 °C.

`CC(C)(C)c1cc(CCC(=O)OCC(COC(=O)CCc2cc(C(C)(C)C)c(O)c(C(C)(C)C)c2)(COC(=O)CCc2cc(C(C)(C)C)c(O)c(C(C)(C)C)c2)COC(=O)CCc2cc(C(C)(C)C)c(O)c(C(C)(C)C)c2)cc(C(C)(C)C)c1O` yielded a melting point of 55 to 85 °C.

Take `CCCCCCCCCCCCCCCCCC(=O)OCC=C(C)CCC=C(C)CCC=C(C)CCC=C(C)CCC=C(C)CCC=C(C)CCC=C(C)CCC=C(C)CCC=C(C)C`: the melting point is 36 to 37 °C.

`CC(=O)OC(CN1C(=O)C2(CC(C)(C)N(C(C)=O)C(C)(C)C2)OC12CCCCCCCCCCC2)CN1C(=O)C2(CC(C)(C)N(C(C)=O)C(C)(C)C2)OC12CCCCCCCCCCC2` gave a melting point of 122 °C.

Take `C[C@H](CCN(CCCCNC(=O)[C@@H](NC(=O)CCCCCCNC(=NC(=O)OCc1ccccc1)NC(=O)OCc1ccccc1)O[C@@H](C)c1ccc2ccccc2c1)C(=O)OCc1ccccc1)NC(=O)OCc1ccccc1`: the melting point came out at 58 °C.

`CCOc1ccc(C(=CC2(C=C(c3ccc(OCC)cc3)c3ccc(N4CCCC4)cc3)OC(=O)c3c(Cl)c(Cl)c(Cl)c(Cl)c32)c2ccc(N3CCCC3)cc2)cc1` (stereo not drawn) showed a melting point of 221 to 223 °C.

On to `CC1=NN(CCCc2ccccc2)C(=O)C1`, for which the melting point fell in the range of 103 to 105 °C.

In turn, `CC(CO)Nc1nc(Nc2ccc(S(C)(=O)=NS(=O)(=O)CC[Si](C)(C)C)cc2)ncc1Br` (mixture of isomers) yielded a melting point of 194 to 197 °C.

`COC(=O)Nc1cc(C(/C=C/c2c(OC)cc(OC)cc2OC)S(=O)(=O)C(/C=C/c2c(OC)cc(OC)cc2OC)c2ccc(OC)c(NC(=O)OC)c2)ccc1OC` (stereo not drawn) yielded a melting point of 188 to 191 °C.

`CCc1nc(OC)c(NC(=O)N2CCN(c3cc(C)cc(C)c3)CC2)cc1C(=O)NC(C)C(=O)Nc1cc(CO)cc(Nc2c3ccccc3nc3c(C)c(C)ccc23)c1` (stereo not drawn): the melting point is 176 to 178 °C.

On to `CC(c1cc(C(C)(C)C)cc(C(C)(C)C)c1O)c1cc(C(C)(C)C)cc(C(C)(C)C)c1Op1oc2c(C(C)(C)C)cc(C(C)(C)C)cc2c2cc(C(C)(C)C)cc(C(C)(C)C)c2o1` (stereo not drawn), for which the melting point fell in the range of 273 to 277 °C.

Compound `Cc1cc(Cc2ccc(O)c(C(c3cc(C)c(O)cc3C)c3cc(C)c(O)cc3C)c2)c(O)c(Cc2ccc(O)c(C(c3cc(C)c(O)cc3C)c3cc(C)c(O)cc3C)c2)c1` registered a melting point of 276 °C.

Compound `O=c1cc(O)cc(-c2ccc(Cl)cc2)o1` showed a melting point of 247 to 249 °C.

`Cc1cc(CNC(=O)c2nc(N3CCOCC3)n(C)c(=O)c2O)ccc1F` gave a melting point of 182 to 185 °C.

The compound `F[Si](c1ccccc1)(c1ccccc1)c1ccccc1` showed a melting point of 64 °C.

With `CCCCCCCCCCCCCCCCCCOc1cc(OCCCOc2ccccc2)cc(N(CC(=O)OCc2ccccc2)CC(=O)OCc2ccccc2)c1`, the melting point lay in the range of 59 to 61 °C.

In turn, `CN1C(=O)C(Br)=C(c2cn(C3OC(COCc4ccccc4)C(OCc4ccccc4)C(OCc4ccccc4)C3OCc3ccccc3)c3ccccc23)C1=O` (stereo not drawn) returned a melting point of 55 °C.

Compound `CC(C)(C)OC(=O)N(CNCCNC(=O)CCOCC(COCCC(=O)NCCNCN(C(=O)OC(C)(C)C)C(=O)OC(C)(C)C)(COCCC(=O)NCCNCN(C(=O)OC(C)(C)C)C(=O)OC(C)(C)C)NC(=O)OCc1ccccc1)C(=O)OC(C)(C)C` yielded a melting point of 86 to 88 °C.

With `COC(=O)C(CC(C)C)NC(=O)C(Cc1ccccc1)NC(=O)C(Cc1ccc(O)cc1)NC(=O)C(CO)NC(=O)C(Cc1c[nH]c2ccccc12)NC(=O)OCc1ccccc1` (stereo not drawn) (Cbz-WSYFL-OMe; configuration not given here), the melting point is 221 to 223 °C.

`CCN1CCN(c2ccc(-c3ccnc(Nc4cc(OC)c(OC)c(OC)c4)n3)cn2)CC1` had a melting point of 139 °C.

Take `IC(I)=C(I)CCOCCC(I)=C(I)I`: the melting point was 43.5 to 44.5 °C.

Compound `CN1CCCC1=NC(=O)Nc1ccc(OCc2ccccc2)cc1` displayed a melting point of 140 to 142 °C.

As for `CSCC[C@H](NC(=O)[C@H](CC(C)C)NC(=O)[C@H](C)NC(=O)[C@@H](N)CC(C)C)C(=O)NCCNc1ccc(NCCNC(=O)[C@H](CCSC)NC(=O)[C@H](CC(C)C)NC(=O)[C@H](C)NC(=O)[C@@H](N)CC(C)C)c2c1C(=O)c1c(O)ccc(O)c1C2=O`, the melting point turned out to be 210 °C.

`NC(=O)c1c(C(=O)O)cnn1-c1ccccc1` came in with a melting point of 234 to 235 °C.

With `CCOC1OC(CO)C(OC2OC(COC(C)=O)C(OC3OC(COC(C)=O)C(OC(C)=O)C(OC(C)=O)C3OC(C)=O)C(OC(C)=O)C2OC(C)=O)C(O)C1NC(C)=O` (stereo not drawn), the melting point is 260 to 262 °C.

As to `CC(C)CCCC(C)C1CCC2C3CC=C4CC(N(CCCNC(=O)CCNC(=O)CNC(=O)OCC5c6ccccc6-c6ccccc65)C(=O)OC(C)(C)C)CCC4(C)C3CCC12C` (stereo not drawn), the melting point is 112 to 114 °C.

Take `CC(C)CCCC(C)C1CCC2C3CC=C4CC(N(CCCNC(=O)CCNC(=O)CCNC(=O)CCCCCNc5ccc([N+](=O)[O-])cc5[N+](=O)[O-])S(=O)(=O)c5ccccc5[N+](=O)[O-])CCC4(C)C3CCC12C` (stereo not drawn): the melting point was in the range of 106 to 108 °C.

The compound `CC(c1cc(C(C)(C)C)cc(C(C)(C)C)c1O)c1cc(C(C)(C)C)cc(C(C)(C)C)c1OP1Oc2c(cc(C(C)(C)C)cc2C(C)(C)C)C(C)c2cc(C(C)(C)C)cc(C(C)(C)C)c2O1` (stereo not drawn) showed a melting point of 219 to 221 °C.

`CC(C)(C)OC(=O)NC(Cc1cc(I)c(Oc2cc(I)c(O)c(I)c2)c(I)c1)C(=O)O` (stereo not drawn) displayed a melting point of 212 °C.

As to `CCCCCCCCCCCCCCCC(=O)OCC1OC(n2cc(F)c(=O)n(C(=O)c3cccc(OC)c3OC)c2=O)CC1OC(=O)CCCCCCCCCCCCCCC` (stereo not drawn), the melting point lay within 77 to 78 °C.

`O=C1CCc2cc(O)c(I)cc21` came in with a melting point of 114 to 115 °C.

For `COC(=O)C(Cc1ccccc1)NC(=O)C(Cc1ccccc1)NC(=O)C(CC(N)=O)NC(=O)C(CCCCNC(=O)OC(C)(C)C)NC(=O)C(CSC(c1ccccc1)(c1ccccc1)c1ccccc1)NC(=O)CNC(=O)C(C)NC(=O)CNC(=O)CNC(=O)C(CC(C)C)NC(=O)OC(C)(C)C` (stereo not drawn) (Boc-LGGAGC(Trt)K(Boc)NFF-OMe; configuration not given here), the melting point lay within 238 to 240 °C.
